PubChem BioAssay (NCI)
Where “and” joins values, the source holds several entries; their conditions need not be identical. Equal values may be shown once.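 Test compounds were applied to cells in 96-well plates for 48 hours at 5 doses. GI50 marks 50% less growth. TGI: total growth inhibition.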

Each compound was assayed on SK-MEL-28 melanoma (assay: NCI anticancer screen, dose series, 48 h).
With `CC1(COc2ccc3c(c2)ncn3-c2ccc3cccc(N4CCC(N)CC4)c3n2)COC1` the GI50 was 3.5 µM and 3.37 µM and the TGI was 9.34 µM and 8.36 µM.
With `O=C(/C=C/c1ccc(O)cc1)c1ccc(O)cc1` the TGI was 61.3 µM.
With `S=c1sc2c(n1-c1ccccc1)NC=NC2S` (stereo not given) the TGI was over 100 µM.
`CCOC(=O)C1=C(C)N(c2ccc(F)cc2F)[C@]2(C#N)C(O)=C(Cl)C(Cl)=C(O)[C@]12C#N` showed a GI50 of over 100 µM and a TGI of over 100 µM.
In the case of `Cc1csc(-c2nnc(Nc3ccc(Oc4ncccc4-c4ccnc(N)n4)cc3)c3ccccc23)c1`, the GI50 is reported as 2.1 µM and the TGI is reported as over 100 µM.
With `CCCCCCCCCCn1cc[n+](C)c1` the GI50 was 3.33 µM and the TGI was 15.1 µM.
`O=C(CCCSc1nc(-c2ccccc2)cc(-c2ccccc2)n1)NO` showed a GI50 of 1.95 µM and a TGI of 7.2 µM.
Work on `c1ccc(NCn2cnc3ccccc32)cc1` yielded a TGI of over 100 µM.
Compound `CC1SC(c2ccc(F)cc2)N(NC(=O)C(O)c2ccccc2)C1=O` (stereo not given) has a GI50 of over 100 µM and a TGI of over 100 µM.
Work on `N#C/C(=C\c1cccc(Cl)c1Cl)c1ccccc1` yielded a TGI of over 100 µM.
`COCCOc1ccc(-c2nc3ccc(-c4nc5ccc(N6CCN(C)CC6)cc5[nH]4)cc3[nH]2)cc1` showed a GI50 of 0.478 µM and a TGI of 2.21 µM.
With `Nc1n[nH]c2cccc(C#Cc3cccc(C(=O)Nc4ccc(CN5CCOCC5)c(C(F)(F)F)c4)c3)c12` the GI50 was 1.88 µM and the TGI was 7.08 µM.
`COc1ccc(-c2cn[nH]c2-c2cc(OC)c(OC)c(OC)c2)cc1` showed a GI50 of 0.0376 µM and a TGI of 32 µM.
`N[C@@H]1CCCC[C@@H]1N.O=P([O-])([O-])CN(CCN(CP(=O)([O-])[O-])CP(=O)([O-])[O-])CP(=O)([O-])[O-].[Pt+2]` gave a GI50 of over 25 µM and a TGI of over 25 µM.
Compound `CCC(=C/[C@H](C)C/C=C/C(C)=C/[C@@H](C)C(=O)[C@@H](C)[C@H](O)[C@@H](C)CC)/C=C/[C@H]1OC(=O)C=C[C@@H]1C` has a GI50 of under 0.01 µM and a TGI of 1.26 µM.
`COc1ccc(OC)c(N2CC(N)C2=O)c1` (stereo not given) was tested, and the TGI was over 100 µM.
Compound `Nc1ccccc1SC(CC(=O)c1ccccc1)c1cccc([N+](=O)[O-])c1` (stereo not given) has a GI50 of 16.6 µM and a TGI of 30.3 µM.
Compound `O=C1CCCCN1c1ccccc1C#C/C=C\C#Cc1ccccc1C(F)(F)F` has a GI50 of 1.09 µM and a TGI of 3.36 µM.
With `O=C(/C=C/c1ccc([N+](=O)[O-])cc1)c1ccc(NCc2nc3ccccc3[nH]2)cc1` the TGI was 28 µM.
Work on `CN1CC[C@@H](NC(=O)Nc2ccc(C#N)cc2)C[C@@H]1c1nc2ccccc2[nH]1` yielded a GI50 of over 100 µM and a TGI of over 100 µM.
`CN(C)CC1CC/C(=C\c2ccc(O)cc2)C1=O` (stereo not given) showed a TGI of 6.08 µM.
For `O=c1ccc2ccccc2cc1[O-].O=c1ccc2ccccc2cc1[O-].[O]=[U+2]=[O]`, the GI50 was 15.3 µM and the TGI was 47.5 µM.
Work on `Cc1ccc(-n2c3nc(=O)[nH]c(=O)c-3cc3cc([N+](=O)[O-])ccc32)cc1` yielded a GI50 of 15.7 µM and a TGI of 42.2 µM.
For `O=C1NC(=NC(CO)Cc2ccccc2)S/C1=C\c1ccc2ncccc2c1` (stereo not given), the GI50 was > 23.7 µM and 7.24 µM and the TGI was > 25 µM and 24.4 µM.
`COC(=O)C(CCCN1C(=O)c2ccccc2C1=O)C(=O)OC` showed a TGI of over 100 µM.
For `COc1cc(/C(C#N)=C/c2nc3c(N4CCOCC4)nc(Cl)nc3n2C)cc(OC)c1OC`, the GI50 was 1.03 µM and the TGI was over 64.8 µM.
`Cc1nnc(NC(=O)c2nc(S(=O)(=O)Cc3ccc(F)cc3)ncc2Cl)s1` gave a GI50 of 1.73 µM and a TGI of 3.26 µM.
`CC(C)[C@@H]1C=C2CC[C@H]3[C@](C)(CN)CCC[C@]3(C)[C@H]2CC1` was tested, and the GI50 was 16.9 µM and the TGI was 30.7 µM.

What follows are compounds tested on SF-295 CNS (assay: NCI anticancer screen, dose series, 48 h).
In the case of `CC1(COc2ccc3c(c2)ncn3-c2ccc3cccc(N4CCC(N)CC4)c3n2)COC1`, the GI50 is reported as 5.75 µM and 2.88 µM and the TGI is reported as 19.4 µM and > 10 µM.
Compound `O=C(/C=C/c1ccc(O)cc1)c1ccc(O)cc1` has a TGI of over 96.7 µM.
`S=c1sc2c(n1-c1ccccc1)NC=NC2S` (stereo not given) was tested, and the TGI was over 100 µM.
`CCOC(=O)C1=C(C)N(c2ccc(F)cc2F)[C@]2(C#N)C(O)=C(Cl)C(Cl)=C(O)[C@]12C#N` was tested, and the GI50 was over 100 µM and the TGI was over 100 µM.
`Cc1csc(-c2nnc(Nc3ccc(Oc4ncccc4-c4ccnc(N)n4)cc3)c3ccccc23)c1` gave a GI50 of 2.98 µM and a TGI of over 100 µM.
For `CCCCCCCCCCn1cc[n+](C)c1`, the GI50 was 1.39 µM and the TGI was 8.43 µM.
With `O=C(CCCSc1nc(-c2ccccc2)cc(-c2ccccc2)n1)NO` the GI50 was 2.17 µM and the TGI was 6.98 µM.
